pEC50: −log10 of the molar value.
System: SARS-CoV-2, USA-WA1/2020
Test: Antiviral assay: inhibition of SARS-CoV-2 cytopathic effect, neutral red
Assay type: cell-based
Details: Severe acute respiratory syndrome coronavirus 2; Vero 76 cells, CPE inhibition by 50%, neutral red; i) and ii) are separate determinations; read-out: Anti-viral Assay (EC50)

## N#C[C@@]1(c2ccc3c(N)ncnn23)O[C@H](CO)[C@@H](O)[C@H]1O [GS-441524]
  pEC50: 5.96 to 6.30
